# Measurements published in ChEMBL document CHEMBL3632469, “Discovery of dihydroquinazolinone derivatives as potent, selective, and CNS-penetrant M(1) and M(4) muscarinic acetylcholine receptors agonists” (Bioorg Med Chem Lett, 2015).
# Tests used:
# [1] = target: Muscarinic acetylcholine receptor M3 (Homo sapiens) (UniProt P20309); test: Agonist activity at human muscarinic M3 acetylcholine receptor expressed in CHO cells assessed as calcium mobilization at 0.3 uM by FLIPR assay; type: functional, cell-based
# Chain of Muscarinic acetylcholine receptor M3 (Homo sapiens) (P20309 whole entry, looked up): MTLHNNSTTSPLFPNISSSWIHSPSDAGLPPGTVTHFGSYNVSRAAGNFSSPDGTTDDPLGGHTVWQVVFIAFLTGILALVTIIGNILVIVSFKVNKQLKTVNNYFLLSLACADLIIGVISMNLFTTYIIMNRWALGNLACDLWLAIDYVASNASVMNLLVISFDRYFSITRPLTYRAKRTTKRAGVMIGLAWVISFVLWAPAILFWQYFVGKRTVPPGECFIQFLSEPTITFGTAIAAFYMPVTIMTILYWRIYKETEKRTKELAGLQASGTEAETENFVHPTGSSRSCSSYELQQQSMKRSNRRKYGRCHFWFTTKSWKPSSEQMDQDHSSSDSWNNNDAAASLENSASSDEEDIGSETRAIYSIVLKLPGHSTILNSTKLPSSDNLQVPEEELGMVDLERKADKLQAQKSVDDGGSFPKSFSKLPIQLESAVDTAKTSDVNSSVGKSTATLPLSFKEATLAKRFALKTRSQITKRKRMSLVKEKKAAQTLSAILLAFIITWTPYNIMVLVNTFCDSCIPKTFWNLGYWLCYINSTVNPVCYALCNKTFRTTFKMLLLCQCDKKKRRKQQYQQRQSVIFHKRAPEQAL
# [2] = target: T1, Muscarinic acetylcholine receptor M4 (Homo sapiens) (UniProt P08173); test: Partial agonist activity at human muscarinic M4 acetylcholine receptor expressed in CHO cells co-expressing Galpha16 assessed as calcium mobilization at 30 uM by FLIPR assay; type: functional, cell-based
# T1 sequence (whole entry): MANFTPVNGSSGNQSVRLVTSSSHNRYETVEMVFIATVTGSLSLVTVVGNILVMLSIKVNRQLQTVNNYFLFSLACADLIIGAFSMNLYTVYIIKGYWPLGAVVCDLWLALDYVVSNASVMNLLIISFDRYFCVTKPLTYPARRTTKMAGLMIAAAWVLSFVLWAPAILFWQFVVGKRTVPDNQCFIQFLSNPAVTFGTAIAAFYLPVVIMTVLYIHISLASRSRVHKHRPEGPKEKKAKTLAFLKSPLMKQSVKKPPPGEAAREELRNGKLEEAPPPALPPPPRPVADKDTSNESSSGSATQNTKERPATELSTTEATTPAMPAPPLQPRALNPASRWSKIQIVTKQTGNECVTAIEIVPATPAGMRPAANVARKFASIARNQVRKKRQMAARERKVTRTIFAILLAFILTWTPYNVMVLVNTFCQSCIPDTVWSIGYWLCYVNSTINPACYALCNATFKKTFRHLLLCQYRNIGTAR
# [3] = target: Nuclear receptor subfamily 1 group I member 2 (Homo sapiens, UniProt O75469); test: Induction of human PXR; type: ADME
# Chain of Nuclear receptor subfamily 1 group I member 2 (O75469 whole entry): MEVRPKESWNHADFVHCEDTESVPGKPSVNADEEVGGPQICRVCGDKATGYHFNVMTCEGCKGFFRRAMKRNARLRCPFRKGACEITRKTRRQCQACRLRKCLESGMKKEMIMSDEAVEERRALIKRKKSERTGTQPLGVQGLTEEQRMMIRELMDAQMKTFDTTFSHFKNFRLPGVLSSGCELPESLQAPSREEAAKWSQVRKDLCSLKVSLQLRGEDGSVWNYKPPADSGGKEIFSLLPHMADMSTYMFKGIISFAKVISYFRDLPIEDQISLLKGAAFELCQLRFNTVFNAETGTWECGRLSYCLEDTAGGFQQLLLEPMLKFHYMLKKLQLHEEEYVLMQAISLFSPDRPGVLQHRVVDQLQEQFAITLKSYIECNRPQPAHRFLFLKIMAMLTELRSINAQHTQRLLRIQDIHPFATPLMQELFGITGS
# [4] = target: Alpha-1B adrenergic receptor (Homo sapiens) (UniProt P35368); test: Agonist activity at adrenergic a1B receptor (unknown origin) expressed in CHO cells assessed as calcium mobilization at 3 uM; type: functional, cell-based
# [5] = target: Type-1 angiotensin II receptor (Homo sapiens) (UniProt P30556); test: Agonist activity at angiotensin 2 type 1 receptor (unknown origin) expressed in CHO cells assessed as calcium mobilization at 3 uM; type: functional, cell-based
# [6] = target: Cannabinoid receptor 1 (Homo sapiens) (UniProt P21554); test: Agonist activity at CB1 receptor (unknown origin) expressed in CHO cells assessed as calcium mobilization at 3 uM; type: functional, cell-based
# Chain of Cannabinoid receptor 1 (Homo sapiens) (P21554 whole entry): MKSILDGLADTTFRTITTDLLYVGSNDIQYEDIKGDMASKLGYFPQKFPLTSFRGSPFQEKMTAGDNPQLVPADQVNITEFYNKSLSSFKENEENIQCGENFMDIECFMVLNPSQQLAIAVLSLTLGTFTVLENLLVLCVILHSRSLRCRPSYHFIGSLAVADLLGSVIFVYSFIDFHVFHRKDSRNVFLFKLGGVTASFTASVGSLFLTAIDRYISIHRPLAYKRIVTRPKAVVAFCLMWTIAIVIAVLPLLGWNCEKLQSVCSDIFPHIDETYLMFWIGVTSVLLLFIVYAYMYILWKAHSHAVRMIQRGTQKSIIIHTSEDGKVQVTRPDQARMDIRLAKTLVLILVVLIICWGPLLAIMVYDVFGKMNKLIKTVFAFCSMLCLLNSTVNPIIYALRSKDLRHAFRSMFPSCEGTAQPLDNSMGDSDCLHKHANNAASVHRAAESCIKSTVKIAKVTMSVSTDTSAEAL
# [7] = target: D(1B) dopamine receptor (Homo sapiens) (UniProt P21918); test: Agonist activity at dopamine D5 receptor (unknown origin) expressed in CHO cells assessed as calcium mobilization at 3 uM; type: functional, cell-based
# Chain of D(1B) dopamine receptor (Homo sapiens) (P21918 whole entry): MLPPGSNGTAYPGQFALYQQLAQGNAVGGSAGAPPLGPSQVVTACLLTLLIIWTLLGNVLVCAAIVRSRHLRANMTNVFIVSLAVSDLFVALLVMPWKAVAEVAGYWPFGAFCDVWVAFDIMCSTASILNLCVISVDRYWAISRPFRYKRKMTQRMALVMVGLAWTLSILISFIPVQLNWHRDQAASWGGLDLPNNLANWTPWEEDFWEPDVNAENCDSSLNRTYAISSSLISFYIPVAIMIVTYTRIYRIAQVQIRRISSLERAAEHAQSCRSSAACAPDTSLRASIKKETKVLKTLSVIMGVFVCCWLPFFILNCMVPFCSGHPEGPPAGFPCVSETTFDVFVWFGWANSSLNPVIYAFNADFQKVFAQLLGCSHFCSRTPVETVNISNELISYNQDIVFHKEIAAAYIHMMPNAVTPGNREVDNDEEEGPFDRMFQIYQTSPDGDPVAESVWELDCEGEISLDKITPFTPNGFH
# [8] = target: Histamine H1 receptor (Homo sapiens) (UniProt P35367); test: Agonist activity at histamine H1 receptor (unknown origin) expressed in CHO cells assessed as calcium mobilization at 3 uM; type: functional, cell-based
# [9] = target: Delta-type opioid receptor (Homo sapiens) (UniProt P41143); test: Agonist activity at opiate delta1 receptor (unknown origin) expressed in CHO cells assessed as calcium mobilization at 3 uM; type: functional, cell-based
# Chain of Delta-type opioid receptor (Homo sapiens) (P41143 whole entry): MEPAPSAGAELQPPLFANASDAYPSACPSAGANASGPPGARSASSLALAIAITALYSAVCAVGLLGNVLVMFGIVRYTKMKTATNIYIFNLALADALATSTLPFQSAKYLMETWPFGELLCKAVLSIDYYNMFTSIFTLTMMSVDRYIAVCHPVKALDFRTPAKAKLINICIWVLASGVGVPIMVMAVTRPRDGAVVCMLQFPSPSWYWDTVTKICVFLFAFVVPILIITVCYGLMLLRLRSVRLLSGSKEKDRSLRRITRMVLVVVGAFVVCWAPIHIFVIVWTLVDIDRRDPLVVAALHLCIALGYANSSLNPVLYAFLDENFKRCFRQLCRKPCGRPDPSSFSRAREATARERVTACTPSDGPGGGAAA
# [10] = target: Kappa-type opioid receptor (Homo sapiens) (UniProt P41145); test: Agonist activity at ppiate kappa receptor (unknown origin) expressed in CHO cells assessed as calcium mobilization at 3 uM; type: functional, cell-based
# [11] = target: Mu-type opioid receptor (Homo sapiens) (UniProt P35372); test: Agonist activity at ppiate mu receptor (unknown origin) expressed in CHO cells assessed as calcium mobilization at 3 uM; type: functional, cell-based
# Chain of Mu-type opioid receptor (Homo sapiens) (P35372 whole entry): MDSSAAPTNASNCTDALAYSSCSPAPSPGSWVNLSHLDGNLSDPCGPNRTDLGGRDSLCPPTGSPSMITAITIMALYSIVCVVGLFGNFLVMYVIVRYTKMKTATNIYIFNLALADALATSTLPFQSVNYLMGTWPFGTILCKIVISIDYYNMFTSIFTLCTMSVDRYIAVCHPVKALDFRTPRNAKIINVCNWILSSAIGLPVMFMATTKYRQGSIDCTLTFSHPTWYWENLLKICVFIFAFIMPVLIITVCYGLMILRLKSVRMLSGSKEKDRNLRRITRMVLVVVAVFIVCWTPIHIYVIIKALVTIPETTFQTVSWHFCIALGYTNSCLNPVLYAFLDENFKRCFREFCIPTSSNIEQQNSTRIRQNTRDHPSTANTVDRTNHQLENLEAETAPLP
# [12] = target: 5-hydroxytryptamine receptor 2C (Homo sapiens) (UniProt P28335); test: Agonist activity at 5-HT2C receptor (unknown origin) expressed in CHO cells assessed as calcium mobilization at 3 uM; type: functional, cell-based
# [13] = target: 5-hydroxytryptamine receptor 5A (Homo sapiens) (UniProt P47898); test: Agonist activity at 5-HT5a receptor (unknown origin) expressed in CHO cells assessed as calcium mobilization at 3 uM; type: functional, cell-based
# [14] = target: P2Y purinoceptor 1 (Homo sapiens) (UniProt P47900); test: Agonist activity at P2Y1 receptor (unknown origin) expressed in CHO cells assessed as calcium mobilization at 3 uM; type: functional, cell-based
# Chain of P2Y purinoceptor 1 (Homo sapiens) (P47900 whole entry): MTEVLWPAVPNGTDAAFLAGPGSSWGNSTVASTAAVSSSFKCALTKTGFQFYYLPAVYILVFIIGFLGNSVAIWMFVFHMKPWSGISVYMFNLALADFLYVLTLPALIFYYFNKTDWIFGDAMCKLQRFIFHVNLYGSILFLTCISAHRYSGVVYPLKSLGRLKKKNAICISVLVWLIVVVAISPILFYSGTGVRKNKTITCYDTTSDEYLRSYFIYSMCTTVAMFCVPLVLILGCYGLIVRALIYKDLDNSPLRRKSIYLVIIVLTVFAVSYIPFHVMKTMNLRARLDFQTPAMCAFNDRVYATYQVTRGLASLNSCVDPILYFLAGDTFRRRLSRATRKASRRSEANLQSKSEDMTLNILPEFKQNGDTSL
# [15] = target: Adenosine receptor A2a (Homo sapiens) (UniProt P29274); test: Antagonist activity at adenosine a2a receptor (unknown origin) expressed in CHO cells assessed as calcium mobilization at 3 uM; type: functional, cell-based
# [16] = target: Adrenergic receptor alpha-1 (Homo sapiens) (UniProt P35348+P25100+P35368); test: Antagonist activity at adrenergic a1 receptor (unknown origin) expressed in CHO cells assessed as calcium mobilization at 3 uM; type: functional, cell-based
# [17] = target: Beta-2 adrenergic receptor (Homo sapiens) (UniProt P07550); test: Antagonist activity at adrenergic beta2 receptor (unknown origin) expressed in CHO cells assessed as calcium mobilization at 3 uM; type: functional, cell-based
# [18] = target: D(1B) dopamine receptor (Homo sapiens) (UniProt P21918); test: Antagonist activity at dopamine D5 receptor (unknown origin) expressed in CHO cells assessed as calcium mobilization at 3 uM; type: functional, cell-based
# CHO = test: Antagonist activity at GaBaB receptor (unknown origin) expressed in CHO cells assessed as calcium mobilization at 3 uM; type: cell-based; details: Homo sapiens
# [19] = target: Histamine H3 receptor (Homo sapiens) (UniProt Q9Y5N1); test: Antagonist activity at histamine H3 receptor (unknown origin) expressed in CHO cells assessed as calcium mobilization at 3 uM; type: functional, cell-based
# [20] = target: Nociceptin receptor (Homo sapiens) (UniProt P41146); test: Antagonist activity at OPRL1 receptor (unknown origin) expressed in CHO cells assessed as calcium mobilization at 3 uM; type: functional, cell-based
# Chain of Nociceptin receptor (Homo sapiens) (P41146 whole entry): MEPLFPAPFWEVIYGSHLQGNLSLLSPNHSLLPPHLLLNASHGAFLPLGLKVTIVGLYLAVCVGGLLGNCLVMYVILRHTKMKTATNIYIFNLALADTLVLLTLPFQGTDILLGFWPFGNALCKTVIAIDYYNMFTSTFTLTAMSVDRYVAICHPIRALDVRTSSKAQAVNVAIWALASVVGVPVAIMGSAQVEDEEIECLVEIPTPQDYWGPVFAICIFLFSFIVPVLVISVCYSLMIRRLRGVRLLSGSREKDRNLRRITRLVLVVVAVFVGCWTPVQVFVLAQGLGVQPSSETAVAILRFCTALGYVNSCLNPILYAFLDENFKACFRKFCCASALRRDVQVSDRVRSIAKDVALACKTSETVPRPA
# [21] = target: 5-hydroxytryptamine receptor 1A (Homo sapiens) (UniProt P08908); test: Antagonist activity at 5-HT1a receptor (unknown origin) expressed in CHO cells assessed as calcium mobilization at 3 uM; type: functional, cell-based
# Chain of 5-hydroxytryptamine receptor 1A (Homo sapiens) (P08908 whole entry): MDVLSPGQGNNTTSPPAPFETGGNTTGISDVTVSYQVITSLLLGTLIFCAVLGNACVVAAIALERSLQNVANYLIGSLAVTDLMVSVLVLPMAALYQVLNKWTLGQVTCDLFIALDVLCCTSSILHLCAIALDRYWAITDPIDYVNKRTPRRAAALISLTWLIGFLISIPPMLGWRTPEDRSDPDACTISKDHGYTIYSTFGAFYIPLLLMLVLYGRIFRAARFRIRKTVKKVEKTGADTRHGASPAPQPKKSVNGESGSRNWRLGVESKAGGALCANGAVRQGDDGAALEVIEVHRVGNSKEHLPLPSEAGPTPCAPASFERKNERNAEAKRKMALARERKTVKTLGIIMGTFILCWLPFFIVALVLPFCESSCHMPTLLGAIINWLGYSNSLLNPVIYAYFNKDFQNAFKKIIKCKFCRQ
# [22] = target: 5-hydroxytryptamine receptor 1B (Homo sapiens) (UniProt P28222); test: Antagonist activity at 5-HT1B receptor (unknown origin) expressed in CHO cells assessed as calcium mobilization at 3 uM; type: functional, cell-based
# [23] = target: 5-hydroxytryptamine receptor 2B (Homo sapiens) (UniProt P41595); test: Antagonist activity at 5-HT2B receptor (unknown origin) expressed in CHO cells assessed as calcium mobilization at 3 uM; type: functional, cell-based
# Chain of 5-hydroxytryptamine receptor 2B (Homo sapiens) (P41595 whole entry): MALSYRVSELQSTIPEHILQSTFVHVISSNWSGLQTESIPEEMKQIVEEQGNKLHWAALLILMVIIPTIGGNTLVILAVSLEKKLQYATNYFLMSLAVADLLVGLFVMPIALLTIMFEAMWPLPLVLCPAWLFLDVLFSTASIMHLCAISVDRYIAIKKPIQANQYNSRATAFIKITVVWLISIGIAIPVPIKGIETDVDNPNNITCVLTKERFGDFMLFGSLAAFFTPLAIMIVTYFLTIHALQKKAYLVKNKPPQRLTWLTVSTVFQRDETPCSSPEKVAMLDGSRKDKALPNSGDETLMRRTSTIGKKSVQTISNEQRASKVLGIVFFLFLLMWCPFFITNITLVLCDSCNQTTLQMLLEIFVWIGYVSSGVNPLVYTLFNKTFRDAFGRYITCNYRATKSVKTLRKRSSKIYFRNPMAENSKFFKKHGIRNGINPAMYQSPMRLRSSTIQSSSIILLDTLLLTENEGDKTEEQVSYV
# [24] = target: 5-hydroxytryptamine receptor 6 (Homo sapiens) (UniProt P50406); test: Antagonist activity at 5-HT6 receptor (unknown origin) expressed in CHO cells assessed as calcium mobilization at 3 uM; type: functional, cell-based
# Chain of 5-hydroxytryptamine receptor 6 (Homo sapiens) (P50406 whole entry): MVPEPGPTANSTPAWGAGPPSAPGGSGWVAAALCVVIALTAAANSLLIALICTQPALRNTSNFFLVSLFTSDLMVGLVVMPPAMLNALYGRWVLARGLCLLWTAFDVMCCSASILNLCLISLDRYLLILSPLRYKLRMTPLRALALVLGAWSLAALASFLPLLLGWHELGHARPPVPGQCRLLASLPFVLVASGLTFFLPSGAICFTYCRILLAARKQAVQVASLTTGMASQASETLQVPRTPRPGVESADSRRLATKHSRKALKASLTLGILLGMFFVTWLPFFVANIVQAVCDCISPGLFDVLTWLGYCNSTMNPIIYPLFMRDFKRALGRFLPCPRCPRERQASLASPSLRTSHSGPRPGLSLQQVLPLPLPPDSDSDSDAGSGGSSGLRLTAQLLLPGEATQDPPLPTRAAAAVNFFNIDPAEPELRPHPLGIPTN
# [25] = target: Adenosine receptor A2b (Homo sapiens) (UniProt P29275); test: Agonist activity at adenosine a2B receptor (unknown origin) expressed in CHO cells assessed as calcium mobilization at 3 uM
smiles,measurement,setting,value
CCOC(=O)N1[C@@H]2CC[C@H]1C[C@H](CN1CC[C@@H](N3Cc4ccccc4NC3=O)C1)C2,Activity,[1],2%
same,Activity,[2],51%
same,Activity,[3],Not Active
same,Activity,[4],0.82%
same,Activity,[5],-0.18%
same,Activity,[6],1.66%
same,Activity,[7],0.08%
same,Activity,[8],0.17%
same,Activity,[9],-0.04%
same,Activity,[10],-0.33%
same,Activity,[11],1%
same,Activity,[12],0.22%
same,Activity,[13],-1.06%
same,Activity,[14],-0.18%
same,inhibition,[15],2.25%
same,inhibition,[16],5.57%
same,inhibition,[17],0.18%
same,inhibition,[18],-3.44%
same,inhibition,CHO,4.47%
same,inhibition,[19],13.7%
same,inhibition,[20],-4.61%
same,inhibition,[21],-3.46%
same,inhibition,[22],10.5%
same,inhibition,[23],6.13%
same,inhibition,[24],1.97%
same,Activity,[25],-0.01%
